# Laboratory results published in paper PMC7556816, “Structural and mechanistic analysis of ATPase inhibitors targeting mycobacterial DNA gyrase” (Journal of Antimicrobial Chemotherapy, 2020).
# Test system: M. tuberculosis gyrase, GyrB Arg141 mutants
# Type: biochemical, Mycobacterium tuberculosis
row,Compound,inhibition of supercoiling of Arg141 mutant gyrase
1,CNc1cc(F)cc2c1[nH]c1nc(Oc3cnc(C)nc3)nc(N3C[C@@H]4[C@@H](N)[C@@H]4C3)c12 [Redx03863],susceptible to inhibition
2,"CO[C@@H]1[C@@H](OC(N)=O)[C@@H](O)[C@H](Oc2ccc3c(O)c(NC(=O)c4ccc(O)c(CC=C(C)C)c4)c(=O)oc3c2C)OC1(C)C [novobiocin, reference compound]",at least partially inhibited
